Data set [1] concerns HK-2. Put plainly: Cytotoxicity against human HK-2 cells assessed as cell viability incubated for 72 hrs by CCK-8 assay. It is filed as cell-based. Particulars: hk-2, 72 h.
Data set [2] has as its system Acinetobacter baumannii. The data set can be described thus: Antibacterial activity against Acinetobacter baumannii assessed as inhibition of bacterial growth incubated for 24 hrs by broth microdilution method. It is filed as functional. Particulars: read-out: MIC100. For orientation: In broth dilution the organism is exposed to a series of concentrations in liquid medium.

Data set [3] relates to Escherichia coli. Put plainly: Antibacterial activity against Escherichia coli assessed as inhibition of bacterial growth incubated for 24 hrs by broth microdilution method. Type of data set: functional. Particulars: read-out: MIC100.
In data set [4] the test system is Moraxella catarrhalis. Put plainly: Antibacterial activity against Moraxella catarrhalis assessed as inhibition of bacterial growth incubated for 24 hrs by broth microdilution method. It is filed as functional. The conditions noted are these: read-out: MIC100.
The test system of data set [5] is Pseudomonas aeruginosa. The data set can be described thus: Antibacterial activity against Pseudomonas aeruginosa PAO1 assessed as inhibition of bacterial growth incubated for 24 hrs by broth microdilution method. Type of data set: functional. The conditions noted are these: read-out: MIC100.
Data set [6] concerns Pseudomonas aeruginosa. Put plainly: Antibacterial activity against Pseudomonas aeruginosa assessed as inhibition of bacterial growth incubated for 24 hrs by broth microdilution method. Type of data set: functional. The conditions noted are these: read-out: MIC100.
For data set [7], the system named is Klebsiella pneumoniae. The data set can be described thus: Antibacterial activity against Klebsiella pneumoniae assessed as inhibition of bacterial growth incubated for 24 hrs by broth microdilution method. Particulars: read-out: MIC100. Type of data set: functional.

≈ marks a conversion by molar mass, not a printed value.

`CCCCCCCC(=O)N[C@@H](CCN)C(=O)N[C@H](C(=O)N[C@@H](CCN)C(=O)N[C@H]1CCNC(=O)[C@H](Cc2ccccc2)NC(=O)[C@H](CCN)NC(=O)[C@H](CCN)NC(=O)[C@H](CC(C)C)NC(=O)[C@@H](Cc2ccccc2)NC(=O)[C@H](CCN)NC1=O)[C@@H](C)O`: in data set [1], the Activity entry is “Non-Toxic”. Further, the MIC in data set [2] turned out to be 0.06 µg/mL (≈ 0.0486 µM); in data set [3] it was 2 µg/mL (≈ 1.62 µM); in data set [4], 2 µg/mL (≈ 1.62 µM); in data set [5], 4 µg/mL (≈ 3.24 µM); in data set [6], 0.25 µg/mL (≈ 0.202 µM); in data set [7], 2 µg/mL (≈ 1.62 µM).
In the case of `CC[C@H](C)CCCCC(=O)N[C@@H](CCN)C(=O)N[C@H](C(=O)N[C@@H](CCN)C(=O)N[C@H]1CCNC(=O)[C@H]([C@@H](C)OC(=O)[C@@H](N)CCCCN)NC(=O)[C@H](CCN)NC(=O)[C@H](CCN)NC(=O)[C@H](CC(C)C)NC(=O)[C@@H](Cc2ccccc2)NC(=O)[C@H](CCN)NC1=O)[C@@H](C)OC(=O)[C@@H](N)CCCCN`, in data set [1], the Activity entry is reported as “Non-Toxic”. Besides, the MIC in data set [5] worked out at 4 µg/mL (≈ 2.74 µM).
For the compound `CC[C@H](C)CCCCC(=O)N[C@@H](CCN)C(=O)N[C@H](C(=O)N[C@@H](CCN)C(=O)N[C@H]1CCNC(=O)[C@H]([C@@H](C)O)NC(=O)[C@H](CCN)NC(=O)[C@H](CCN)NC(=O)[C@H](CC(C)C)NC(=O)[C@@H](Cc2ccccc2)NC(=O)[C@H](CCN)NC1=O)[C@@H](C)OC(=O)[C@@H](N)CC(=O)O`, the Activity entry in data set [1] is recorded as “Non-Toxic”. The MIC in data set [2] is 0.125 µg/mL (≈ 0.0948 µM); in data set [3], 0.25 µg/mL (≈ 0.19 µM); in data set [4], over 32 µg/mL; in data set [5], 2 µg/mL (≈ 1.52 µM); in data set [6], 0.25 µg/mL (≈ 0.19 µM); in data set [7], 0.5 µg/mL (≈ 0.379 µM).
`CC[C@H](C)CCCCC(=O)N[C@@H](CCN)C(=O)N[C@H](C(=O)N[C@@H](CCN)C(=O)N[C@H]1CCNC(=O)[C@H]([C@@H](C)OC(=O)[C@@H](N)CC(=O)O)NC(=O)[C@H](CCN)NC(=O)[C@H](CCN)NC(=O)[C@H](CC(C)C)NC(=O)[C@@H](Cc2ccccc2)NC(=O)[C@H](CCN)NC1=O)[C@@H](C)OC(=O)[C@@H](N)CC(=O)O`: in data set [1], the Activity entry is “Non-Toxic”. Also, the MIC in data set [5] worked out at 4 µg/mL (≈ 2.79 µM).
